The test system of data set [1] is turpentine oil-induced inflammation. Further details: method as in PMID 23504664; Leukocytes (L, leukocytes count):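 lower leukocyte count means stronger anti-inflammatory effect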. The conditions noted are these: mean ± SD; cited from earlier work.
Another data set relates to phagocytes. On the set-up: method as in PMID 23504664. The settings on record: turpentine oil-induced inflammation, mean ± SD; cited from earlier work.
A further data set concerns oxidative stress. Further details: method as in PMID 23504664. The settings on record: turpentine oil-induced inflammation, mean ± SD; cited from earlier work.
Data set [2] in a line: Lipophilicity by reversed-phase thin-layer chromatography (RP-TLC), isopropanol-water mobile phase. The conditions noted are these: RP-18F254s TLC, iso-propanol-water 45-65% (v/v); for RM0 (lipophilicity estimation parameter, intercept of RM = RM0 + bC): extrapolated to pure water. The data set is classed as physicochemical. The protocol: Some of the parameters resulting from a RP-TLC may be associated to the lipophilic character of the analytes. The retention parameters (RM) are calculated by means of well-known Batte-Smith and Westall Equation (1): RM = log (1/RF − 1) (1)
Generally, the RM values determined by RP-TLC are linearly dependent on the concentration of the organic modifier (C) in the mobile phase Equation (2): RM = RM0 + bC (2) where b and RM0 are, respectively, the slope and the intercept of Equation (2). […] Additionally, it has been stated that not only the RM0, but also the slope, b, as a characteristic of the specific hydrophobic surface area of the compounds, can be used as an estimation of lipophilicity. The advantages of TLC methods consist in the small quantity of compounds needed for the determination, and the rapidity and simplicity of the method. Also, they are inexpensive, rapid and easy to perform.
Chromatography was performed on 20 × 20 cm RP-18F254s TLC precoated silica plates (Merck; Darmstadt, Germany). Solutions (1 mg/mL) of the tested compounds were prepared in iso-propanol, and 3 μL aliquots were spotted in duplicate on the plates by hand, 10 mm from the bottom edge and 20 mm apart. The mobile phases were composed of the iso-propanol-water binary mixtures, with a varying content of organic modifier between 45% and 65% (v/v) in 5% increments, as the study compounds differed considerably in their retention. Chromatography was performed in a normal developing chamber at room temperature, the developing distance being 10 cm. The chromatography chamber was saturated with the mobile phase for 30 min before use. After the development (30–60 min), the plates were air dried at room temperature and examined under a UV lamp (λ = 254 nm), and the RF (retardation factor) values were measured manually by a digital caliper. The experiments were performed in triplicate.

Data set [3] relates to nitric oxide (NO) synthesis. On the set-up: method as in PMID 23504664; unit not given here. The conditions noted are these: turpentine oil-induced inflammation, mean ± SD; cited from earlier work.

In the case of `Cc1ccc(-c2nc(C)c(-c3nnc(S)s3)s2)cc1` [Th-22], in data set [1], the “Leukocytes (L, leukocytes count)” value was 5812.5 ± 399 and the “PMN (polymorphonuclear leukocytes, differential leucocyte count)” value is 66.4 ± 0.8%. Moreover, in the data set with phagocytes, the “PA (phagocytic activity)” value was 23.5 ± 0.9 and the “PI (phagocytosis index)” value was 35 ± 8.2%. Besides, in the data set with oxidative stress, the “OSI (oxidative stress index)” value is 5.13 ± 4.9, the “TAR (total antioxidant response)” value was 1.105 ± 0.001 and the “TOS (total oxidative status)” value is recorded as 56.694 ± 7.9. Moreover, in data set [2], the “b (slope of RM = RM0 + bC, specific hydrophobic surface area)” value is −1.227 and the “RM0 (lipophilicity estimation parameter, intercept of RM = RM0 + bC)” value was 0.701. In data set [3], the “NO (nitric oxide synthesis)” value was 52.08 ± 8.1.

In the case of `C=CCn1c(S)nnc1-c1sc(-c2ccccc2)nc1C` [Th-15], in data set [1], the “Leukocytes (L, leukocytes count)” value is given as 9982.5 ± 81 and the “PMN (polymorphonuclear leukocytes, differential leucocyte count)” value was 77.4 ± 5.1%. Moreover, in the data set with phagocytes, the “PA (phagocytic activity)” value was 29 ± 3.2 and the “PI (phagocytosis index)” value is listed as 24 ± 4.3%. For the same molecule, in the data set on oxidative stress, the “OSI (oxidative stress index)” value is 6.32 ± 4.4, the “TAR (total antioxidant response)” value is 1.094 ± 0.006 and the “TOS (total oxidative status)” value is on record as 69.171 ± 4.4. In data set [2], the “b (slope of RM = RM0 + bC, specific hydrophobic surface area)” value is reported as −2.905 and the “RM0 (lipophilicity estimation parameter, intercept of RM = RM0 + bC)” value is 1.664. Besides, the “NO (nitric oxide synthesis)” value in data set [3] was 71.630 ± 5.9.

As for `C=CCNC(=S)NNC(=O)c1sc(-c2ccc(C)cc2)nc1C` [Th-8], in data set [1], the “Leukocytes (L, leukocytes count)” value was 5718.75 ± 104 and the “PMN (polymorphonuclear leukocytes, differential leucocyte count)” value is 66.6 ± 1.0%. Moreover, in the data set with phagocytes, the “PA (phagocytic activity)” value is on record as 21 ± 1.1 and the “PI (phagocytosis index)” value is 21.5 ± 0.9%. For the same molecule, in the data set with oxidative stress, the “OSI (oxidative stress index)” value is given as 5.03 ± 4.1, the “TAR (total antioxidant response)” value is 1.107 ± 0.002 and the “TOS (total oxidative status)” value is listed as 55.664 ± 4.2. Also, in data set [2], the “b (slope of RM = RM0 + bC, specific hydrophobic surface area)” value is reported as −2.685 and the “RM0 (lipophilicity estimation parameter, intercept of RM = RM0 + bC)” value is reported as 1.398. For the same molecule, in data set [3], the “NO (nitric oxide synthesis)” value is listed as 48.793 ± 5.5.

On to `C=CCn1c(S)nnc1-c1sc(-c2ccc(Br)cc2)nc1C` [Th-17], for which, in data set [1], the “Leukocytes (L, leukocytes count)” value is 10,147.5 ± 528 and the “PMN (polymorphonuclear leukocytes, differential leucocyte count)” value is listed as 75.4 ± 5.2%. In addition, in the data set with phagocytes, the “PA (phagocytic activity)” value is listed as 19.5 ± 0.9 and the “PI (phagocytosis index)” value is 15 ± 3.5%. Moreover, in the data set with oxidative stress, the “OSI (oxidative stress index)” value was 6.38 ± 5.2, the “TAR (total antioxidant response)” value is 1.093 ± 0.003 and the “TOS (total oxidative status)” value is 69.962 ± 5.2. Further, in data set [2], the “b (slope of RM = RM0 + bC, specific hydrophobic surface area)” value was −4.737 and the “RM0 (lipophilicity estimation parameter, intercept of RM = RM0 + bC)” value is given as 2.808. Besides, the “NO (nitric oxide synthesis)” value in data set [3] is listed as 60.479 ± 11.8.

With `CNC(=S)NNC(=O)c1sc(-c2ccccc2)nc1C` [Th-4], in data set [1], the “Leukocytes (L, leukocytes count)” value is listed as 12,218.8 ± 1341 and the “PMN (polymorphonuclear leukocytes, differential leucocyte count)” value is reported as 82.8 ± 4.1%. Besides, in the data set on phagocytes, the “PA (phagocytic activity)” value is reported as 29 ± 1.8 and the “PI (phagocytosis index)” value is listed as 22.5 ± 3.5%. Moreover, in the data set on oxidative stress, the “OSI (oxidative stress index)” value is reported as 4.49 ± 3.6, the “TAR (total antioxidant response)” value is listed as 1.109 ± 0.006 and the “TOS (total oxidative status)” value is 49.823 ± 3.6. Moreover, in data set [2], the “b (slope of RM = RM0 + bC, specific hydrophobic surface area)” value is −2.355 and the “RM0 (lipophilicity estimation parameter, intercept of RM = RM0 + bC)” value is 0.986. Moreover, the “NO (nitric oxide synthesis)” value in data set [3] is 47.501 ± 2.8.

With `Cc1nc(-c2ccccc2)sc1-c1nnc(S)o1` [Th-18], in data set [1], the “Leukocytes (L, leukocytes count)” value is on record as 4575 ± 805 and the “PMN (polymorphonuclear leukocytes, differential leucocyte count)” value is recorded as 63.7 ± 2.4%. For the same molecule, in the data set with phagocytes, the “PA (phagocytic activity)” value is reported as 56 ± 8.6 and the “PI (phagocytosis index)” value was 17 ± 1.9%. Further, in the data set on oxidative stress, the “OSI (oxidative stress index)” value is 6.98 ± 4.1, the “TAR (total antioxidant response)” value was 1.118 ± 0.006 and the “TOS (total oxidative status)” value is reported as 78.089 ± 14.1. In data set [2], the “b (slope of RM = RM0 + bC, specific hydrophobic surface area)” value is reported as −1.840 and the “RM0 (lipophilicity estimation parameter, intercept of RM = RM0 + bC)” value is on record as 0.540. Further, the “NO (nitric oxide synthesis)” value in data set [3] is 43.23 ± 3.9.

The values above are taken from article PMC6332165, “Study of the Relationships between the Structure, Lipophilicity and Biological Activity of Some Thiazolyl-carbonyl-thiosemicarbazides and Thiazolyl-azoles” (Molecules, 2015).
